In PMC10657444, “Design and evaluation of tadpole-like conformational antimicrobial peptides” (Communications Biology, 2023):
Converted amounts (≈) assume the structure as drawn. “And” between values parts separate entries of the source, which are not always exact repeats. Identical values can stand only once. Non-standard residues stand in square brackets, D forms with d. Residues, ends and D or L forms follow the SMILES beside them.

Tests used:
[1] = tested on: E. coli ATCC 25922; format: cell-based, Escherichia coli
Text: Bacteria were cultivated in Luria-Bertani (LB) broth.

[2] = MTT cytotoxicity assay; format: cell-based, human; details: human
Description: (§1) To determine the cytotoxicity of the peptides, we used the MTT (3-(4,5)-dimethylthiahiazo (-z-y1)-3,5-di-phenytetrazoliumromide) dye reduction assay against HEK293T cells. In brief, the 100 μL of cells in 96-well plate were incubated for 24 h at 37 °C, 5% CO2, and then peptide solutions (concentrations ranging from 100 to 0.39 μM) were added and further incubated for 72 h. MTT solution (5 mg/mL) was added and further incubated for 4 h. After incubation, the precipitated MTT formazan crystal was dissolved by addition of dimethyl sulfoxide (DMSO). […]

[3] = tested on: HEK293T cells; test: MTT cytotoxicity assay; format: cell-based, human; details: for percent cell viability: HEK293T
Description: as §1

[4] = tested on: sheep red blood cells; test: Hemolysis assay
Description: To evaluate the hemolysis effects of peptides, red blood hemolysis was performed as described with minimum modifications. Sterile defibrated sheep blood was purchased from Guangzhou Hongquan Biotechnology Co., LTD. Blood cells were adjusted to 2 × 10^9 cells/mL in phosphate-buffered saline (PBS, pH 7.4). In total, 98 μL sheep red blood cell suspension was incubated with 2 μL of peptides at different concentrations ranging from 3.13 to 100 µM. After incubation for 1 h at 37 °C, the cells were centrifuged and the absorbance of the supernatant was measured at 450 nm. The value for “zero hemolysis” was determined using sterile PBS, while 100% hemolysis was established using 1.5% (v/v) Triton X-100. Hemolysis of testing sample was calculated as the percentage of Triton X-100-induced hemolysis.

[5] = tested on: K. pneumoniae ATCC 700603; test: Time-kill assay; format: cell-based, Klebsiella pneumoniae
Description: Time-kill assays were done in tubes (in 1.5 mL of LB) and antibiotics at the 1 ×, 2 ×, 4 × and 8 × MIC. Tubes were inoculated (5 × 10^6 CFU/mL) with MRSA USA 300 and K. pneumoniae ATCC 700603 and incubated at 37 °C under shaking. Serial dilutions of the cultures were plated at each desired time point (0, 1, 3, 6, and 24 h), using a multichannel pipette as follows: in line 1 of a 96-well plate, 100 µL of bacterial suspension was added, while 90 µL of 0.9% sterile saline per well was added to the other lines. At selected time points, 100 µL of bacterial suspension was transferred from the time-kill assay plate to the first line. The wells were further diluted 1 in 10 (0.9% saline) for the appropriate number of dilutions and 10 μL of each dilution was spotted in duplicate onto MH agar plates, then incubated overnight at 37°C. The colonies in each spot were counted and used to calculate the number of viable CFU/mL remaining in the original culture by considering the dilution factors.

[6] = tested on: MRSA USA 300; test: Scanning electron microscopy; format: cell-based, Staphylococcus aureus; details: 2 × MIC, 60 min
Description: (§2) Mid-log phase bacteria (MRSA USA 300 and K. pneumoniae ATCC 700603) grown in LB broth were adjusted to a density of 5 × 10^6 CFU/mL. […] All samples were centrifuged at 8000 rpm for 5 min, washed and then resuspended in PBS. Bacterial cells were fixed with 2.5% glutaraldehyde, and then incubated at 37°C on a glass slide for 20 min. Samples were dehydrated by passing through gradient ethanol (10%, 30%, 50%, 70%, 90%, and 100%) for 5 min at each concentration. Slides were dried with an automatic critical point drying instrument (Leica EM CPD300), and a small amount of gold was sputtered onto the samples using a sputter coater system to avoid charging in the microscope. Finally, the bacteria were visualized under a field-emission scanning electron microscopy (FESEM) device (Sirion 200).

[7] = tested on: K. pneumoniae ATCC 700603; test: Scanning electron microscopy; format: cell-based, Klebsiella pneumoniae; details: 2 × MIC, 60 min
Description: as §2

[8] = tested on: MRSA USA 300; test: Transmission electron microscopy; format: cell-based, Staphylococcus aureus; details: 2 × MIC, 60 min
Description: (§3) The processing method of the samples for transmission electron microscopy (TEM) was the same as the treatment for SEM. The samples were then prefixed with 2.5% glutaraldehyde at 4°C overnight, post-fixed with osmium tetroxide for 70 min, and washed twice with PBS (pH 7.4). Subsequently, the samples were dehydrated for 10 min in a graded ethanol series (30, 50, 70, 90, and 100%) followed by 10 min in a mixture of absolute ethanol and acetone (1:1, v/v) and 10 min in absolute acetone. The specimens were transferred to a mixture of absolute acetone and epoxy resin (1:1, v/v) for 30 min and then to pure epoxy resin overnight at a constant temperature. Finally, the samples were sectioned using an ultramicrotome, stained with uranyl acetate and lead citrate, and then observed by TEM (Hitachi H-7650, Japan).

[9] = tested on: K. pneumoniae ATCC 700603; test: Transmission electron microscopy; format: cell-based, Klebsiella pneumoniae; details: 2 × MIC, 60 min
Description: as §3

[10] = HEK293T cells, OD450, cytotoxicity (Fig 2a), replicates

CC[C@@H](C)[C@@H](NC(=O)[C@@H](Cc1ccccc1)NC(=O)[C@@H](Cc1ccccc1)NC(=O)[C@@H](Cc1ccccc1)NC(=O)[C@H](N)Cc1ccccc1)C(=O)N[C@H](CCCNC(=N)N)C(=O)N[C@H](CCCNC(=N)N)C(=O)N[C@H](CC(C)C)C(=O)N[C@H](Cc1ccccc1)C(=O)N[C@H](CCCNC(=N)N)C(N)=O [RI-HT2] (H-[dF][dF][dF][dF][dI][dR][dR][dL][dF][dR]-NH2; N-terminus assumed)
MIC Gram- E. coli ATCC 25922 [1]: 3.13 µM (≈ 4.53 µg/mL) | IC50 at 72 h [2]: > 100 µM | viability at 72 h, 6.25 µM ([2]; HEK293T cells, HEK293T, 6.25 µM, read-out: OD450, cytotoxicity (Fig 2a), replicates): 90.2% | viability at 72 h, 12.5 µM ([2]; HEK293T cells, HEK293T, 12.5 µM, read-out: OD450, cytotoxicity (Fig 2a), replicates): 87.8% | viability at 72 h, 0.39 µM [2, 10]: 102% | viability at 72 h, 0.78 µM [2, 10]: 94.4% | viability at 72 h, 1.57 µM [2, 10]: 92.8% | viability at 72 h, 3.13 µM [2, 10]: 93% | viability at 72 h, 25 µM [2, 10]: 84.2% | viability at 72 h, 50 µM [2, 10]: 77.8% | viability at 72 h, 100 µM [2, 10]: 75.8% | toxicity / cytotoxicity against HEK293T cells (in words) [3]: did not present | percent cell viability ([3]; 6.25 µM): 88.3759 | percent cell viability ([3]; 12.5 µM): 86.6385 and 87.1349 | OD450, hemolysis (Fig 2b), replicates ([4]; 6.25 µM): 0.01607 (2×) and 0.02078 and 0.0162 (2×) and 0.02093 | OD450, hemolysis (Fig 2b), replicates ([4]; 12.5 µM): 0.02038 (2×) and 0.02274 and 0.02054 (2×) and 0.02291 | HC10 (concentration inducing 10% hemolysis) ([4]; red cells of sheep, 1 h): > 100.0 µM | viable count, time-kill ([5]; 2 × MIC, 0 h): 12000000 CFU/mL and 16000000 CFU/mL and 14000000 CFU/mL | viable count, time-kill ([5]; 2 × MIC, 1 h): 10000 CFU/mL and 17000 CFU/mL and 15000 CFU/mL | viable count, time-kill ([5]; 2 × MIC, 3 h): 100 CFU/mL | viable count, time-kill ([5]; 2 × MIC, 6 h): 220000 CFU/mL and 310000 CFU/mL and 270000 CFU/mL | viable count, time-kill ([5]; 2 × MIC, 24 h): 1000000000000 CFU/mL and 1300000000000 CFU/mL | viable count, time-kill ([5]; 4 × MIC, 0 h): 12000000 CFU/mL and 16000000 CFU/mL and 14000000 CFU/mL | viable count, time-kill ([5]; 4 × MIC, 1 h): 2500 CFU/mL and 3500 CFU/mL and 3000 CFU/mL | viable count, time-kill ([5]; 4 × MIC, 3 h): 0 CFU/mL | viable count, time-kill ([5]; 4 × MIC, 6 h): 24000 CFU/mL and 32000 CFU/mL and 30000 CFU/mL | viable count, time-kill ([5]; 4 × MIC, 24 h): 3800000 CFU/mL and 3400000 CFU/mL | time to complete killing ([5]; 8 × MIC): 3 h | viable count, time-kill ([5]; 8 × MIC, 0 h): 12000000 CFU/mL and 16000000 CFU/mL and 14000000 CFU/mL | viable count, time-kill ([5]; 8 × MIC, 1 h): 300 CFU/mL and 500 CFU/mL | viable count, time-kill ([5]; 8 × MIC, 3 h): 0 CFU/mL | viable count, time-kill ([5]; 8 × MIC, 6 h): 0 CFU/mL | viable count, time-kill ([5]; 8 × MIC, 24 h): 0 CFU/mL | viable count, time-kill ([5]; MIC, 0 h): 12000000 CFU/mL and 16000000 CFU/mL and 14000000 CFU/mL | viable count, time-kill ([5]; MIC, 1 h): 270000 CFU/mL and 230000 CFU/mL and 250000 CFU/mL | viable count, time-kill ([5]; MIC, 3 h): 23000 CFU/mL and 16000 CFU/mL and 17000 CFU/mL | viable count, time-kill ([5]; MIC, 6 h): 3400000 CFU/mL and 2800000 CFU/mL and 3800000 CFU/mL | viable count, time-kill ([5]; MIC, 24 h): 1000000000000 CFU/mL and 1200000000000 CFU/mL and 1700000000000 CFU/mL | cell surface morphology by SEM (in words) [6]: rough, shrunken, wrinkled and partially damaged | cell surface morphology by SEM (in words) [7]: rough, shrunken, wrinkled and partially damaged | membrane and intracellular structure by TEM (in words) [8]: cytoplasmic membranes became blurred and separated | membrane and intracellular structure by TEM (in words) [9]: cytoplasmic membranes became blurred and separated
